Results on 42 compounds are retold here after publication PMC3623016 (Journal of biomolecular screening, 2012).

Where “and” joins values, the source holds several entries; their conditions need not be identical. Identical values can stand only once.

Data set [1] deals with Jurkat-DNR cells.
In data set [2] the test system is Ig-MXP3 cells. The experiment in a line: Direct cytotoxicity. Format: cell-based.
The target of data set [3] is T1, ABCG2 (Homo sapiens, UniProt Q9UNQ0).
T1 sequence (Q9UNQ0 1-655): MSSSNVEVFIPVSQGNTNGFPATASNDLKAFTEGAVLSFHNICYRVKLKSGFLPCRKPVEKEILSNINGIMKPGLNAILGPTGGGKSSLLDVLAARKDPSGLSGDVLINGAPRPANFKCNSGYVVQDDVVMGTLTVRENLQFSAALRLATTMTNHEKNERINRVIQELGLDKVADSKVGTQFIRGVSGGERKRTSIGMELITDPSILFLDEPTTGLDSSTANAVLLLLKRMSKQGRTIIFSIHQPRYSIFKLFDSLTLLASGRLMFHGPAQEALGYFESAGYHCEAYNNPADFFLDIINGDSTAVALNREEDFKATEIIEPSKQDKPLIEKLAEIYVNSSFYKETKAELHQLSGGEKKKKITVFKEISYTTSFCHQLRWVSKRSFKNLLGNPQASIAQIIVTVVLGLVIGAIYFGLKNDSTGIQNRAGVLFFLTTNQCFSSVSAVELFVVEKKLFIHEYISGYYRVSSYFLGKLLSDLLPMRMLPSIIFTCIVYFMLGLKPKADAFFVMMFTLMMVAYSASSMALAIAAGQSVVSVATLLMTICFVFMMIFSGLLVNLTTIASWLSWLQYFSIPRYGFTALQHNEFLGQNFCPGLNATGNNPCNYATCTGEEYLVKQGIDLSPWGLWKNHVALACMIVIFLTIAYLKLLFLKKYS
The experiment in a line: JC-1 efflux inhibition dose-response, flow cytometry, Ig-MXP3 cells. The settings on record: quotient of average ABCB1 IC50 and average ABCG2 IC50, JC-1 efflux assay. Format: cell-based. Background: In flow cytometry, cells or beads pass a laser one at a time.

In the case of `O=C(NCCCN1CCOCC1)c1cnn2c(-c3ccccc3)cc(-c3ccccc3)nc12` [Compound 6, reversan, reference compound], the “ABCB1 TD50” value in data set [1] was determined as 7.04 µM. Further, in data set [2], the “ABCG2 TD50” value was more than 100 µM.

On to `O=C(c1ccco1)N1CCN(c2cc(-c3ccccc3)nc3cc(-c4cccc(Cl)c4)nn23)CC1` [Compound 8], for which the “∼Fold G2 Selective” value in data set [3] worked out at 6.4 fold. Besides, the “ABCB1 TD50” value in data set [1] turned out to be 6.77 µM. For the same compound, the “ABCG2 TD50” value in data set [2] was determined as 6.00 µM.

On to `Cc1nc2cc(-c3cccc(Cl)c3)nn2c(N2CCN(C(=O)c3ccco3)CC2)c1C` [Compound 9], for which the “∼Fold G2 Selective” value in data set [3] is 3.2 fold. For the same compound, in data set [1], the “ABCB1 TD50” value is more than 100 µM. In data set [2], the “ABCG2 TD50” value was determined as 47.40 µM.

`Cc1cc(N2CCN(C(=O)c3ccco3)CC2)n2nc(-c3cccc(Cl)c3)cc2n1` [Compound 10]: the “∼Fold G2 Selective” value in data set [3] was 2.1 fold.

As to `O=C(c1ccoc1)N1CCN(c2cc(-c3ccccc3)nc3cc(-c4cccc(Cl)c4)nn23)CC1` [Compound 11], the “∼Fold G2 Selective” value in data set [3] was 7 fold and 7.2 fold.

As to `O=C(c1ccsc1)N1CCN(c2cc(-c3ccccc3)nc3cc(-c4cccc(Cl)c4)nn23)CC1` [Compound 12], the “∼Fold G2 Selective” value in data set [3] was 2.8 fold.

Take `O=C(c1ccccc1)N1CCN(c2cc(-c3ccccc3)nc3cc(-c4cccc(Cl)c4)nn23)CC1` [Compound 13]: the “∼Fold G2 Selective” value in data set [3] stood at 2.4 fold.

Consider `COc1ccccc1C(=O)N1CCN(c2cc(-c3ccccc3)nc3cc(-c4cccc(Cl)c4)nn23)CC1` [Compound 14], for which, in data set [3], the “∼Fold G2 Selective” value stood at 1.0 fold.

Regarding `COc1ccc(C(=O)N2CCN(c3cc(-c4ccccc4)nc4cc(-c5cccc(Cl)c5)nn34)CC2)cc1` [Compound 16], the “∼Fold G2 Selective” value in data set [3] is reported as 1.0 fold.

For the compound `O=C(c1ccccc1Cl)N1CCN(c2cc(-c3ccccc3)nc3cc(-c4cccc(Cl)c4)nn23)CC1` [Compound 17], the “∼Fold G2 Selective” value in data set [3] stood at 1.4 fold.

Regarding `O=C(c1cccc(Cl)c1)N1CCN(c2cc(-c3ccccc3)nc3cc(-c4cccc(Cl)c4)nn23)CC1` [Compound 18], the “∼Fold G2 Selective” value in data set [3] turned out to be 1.4 fold.

Regarding `O=C(c1ccc(Cl)cc1)N1CCN(c2cc(-c3ccccc3)nc3cc(-c4cccc(Cl)c4)nn23)CC1` [Compound 19], in data set [3], the “∼Fold G2 Selective” value worked out at 0.9 fold.

With `O=C(C1CCCCC1)N1CCN(c2cc(-c3ccccc3)nc3cc(-c4cccc(Cl)c4)nn23)CC1` [Compound 22], the “∼Fold G2 Selective” value in data set [3] worked out at 1.2 fold.

With `CC(=O)N1CCN(c2cc(-c3ccccc3)nc3cc(-c4cccc(Cl)c4)nn23)CC1` [Compound 23], the “∼Fold G2 Selective” value in data set [3] is 0.9 fold.

For `O=C(c1ccoc1)N1CCN(c2cc(-c3ccccc3F)nc3cc(-c4cccc(Cl)c4)nn23)CC1` [Compound 26], the “∼Fold G2 Selective” value in data set [3] amounted to 2.4 fold.

In the case of `O=C(c1ccoc1)N1CCN(c2cc(-c3ccc(F)cc3)nc3cc(-c4cccc(Cl)c4)nn23)CC1` [Compound 27], the “∼Fold G2 Selective” value in data set [3] is listed as 2.3 fold.

As to `COc1cccc(-c2cc(N3CCN(C(=O)c4ccoc4)CC3)n3nc(-c4cccc(Cl)c4)cc3n2)c1` [Compound 28], the “∼Fold G2 Selective” value in data set [3] was 1.9 fold.

Take `COc1ccc(-c2cc(N3CCN(C(=O)c4ccoc4)CC3)n3nc(-c4cccc(Cl)c4)cc3n2)cc1` [Compound 29]: the “∼Fold G2 Selective” value in data set [3] was found to be 2.4 fold.

For the compound `C#Cc1cc(N2CCN(C(=O)c3ccoc3)CC2)n2nc(-c3cccc(Cl)c3)cc2n1` [Compound 32], the “∼Fold G2 Selective” value in data set [3] is 4.3 fold.

As for `O=C(c1ccoc1)N1CCN(c2cc(-c3ccccc3)nc3cc(-c4ccc(Br)cc4)nn23)CC1` [Compound 33], in data set [3], the “∼Fold G2 Selective” value is given as 1.7 fold.

As for `COc1cccc(-c2cc3nc(-c4ccccc4)cc(N4CCN(C(=O)c5ccoc5)CC4)n3n2)c1` [Compound 35], the “∼Fold G2 Selective” value in data set [3] was 2.0 fold.

For `COc1ccccc1-c1cc2nc(-c3ccccc3)cc(N3CCN(C(=O)c4ccco4)CC3)n2n1` [Compound 37], the “∼Fold G2 Selective” value in data set [3] was 2.9 fold.

For `COc1cccc(-c2cc3nc(-c4ccccc4)cc(N4CCN(C(=O)c5ccco5)CC4)n3n2)c1` [Compound 38], in data set [3], the “∼Fold G2 Selective” value amounted to 3.4 fold.

In the case of `CCCN(CCc1ccccc1)C(=O)[C@@H]1OC(C(=O)O)=C[C@H](O)[C@H]1NC(C)=O` [Compound 39], the “∼Fold G2 Selective” value in data set [3] is 2.7 fold.

For the compound `Cc1cccc(-c2cc3nc(-c4ccccc4)cc(N4CCN(C(=O)c5ccco5)CC4)n3n2)c1` [Compound 40], the “∼Fold G2 Selective” value in data set [3] amounted to 1.6 fold.

For the compound `COc1ccccc1-c1cc2nc(-c3ccccc3)cc(N3CCN(C(=O)c4ccccc4)CC3)n2n1` [Compound 41], in data set [3], the “∼Fold G2 Selective” value came out at 3.0 fold.

Regarding `O=C(c1ccccc1)N1CCN(c2cc(-c3ccccc3)nc3cc(-c4cccc(F)c4)nn23)CC1` [Compound 42], in data set [3], the “∼Fold G2 Selective” value is reported as 1.9 fold.

Consider `O=C(c1ccccc1)N1CCN(c2cc(-c3ccccc3)nc3cc(-c4ccc(F)cc4)nn23)CC1` [Compound 43], for which, in data set [3], the “∼Fold G2 Selective” value is on record as 2.0 fold.

With `COc1ccc(-c2cc(N3CCN(C(=O)c4ccoc4)CC3)n3nc(-c4ccccc4)cc3n2)cc1` [Compound 45], in data set [3], the “∼Fold G2 Selective” value is 1.9 fold.

For `O=C(c1ccoc1)N1CCN(c2cc(-c3ccccc3F)nc3cc(-c4ccccc4)nn23)CC1` [Compound 46], the “∼Fold G2 Selective” value in data set [3] is 10.0 fold.

Regarding `O=C(c1ccoc1)N1CCN(c2cc(-c3cccc(F)c3)nc3cc(-c4ccccc4)nn23)CC1` [Compound 47], the “∼Fold G2 Selective” value in data set [3] came out at 4.2 fold.

For `O=C(c1ccoc1)N1CCN(c2cc(-c3ccc(F)cc3)nc3cc(-c4ccccc4)nn23)CC1` [Compound 48], the “∼Fold G2 Selective” value in data set [3] is 1.8 fold.

Regarding `CC(C)(C)c1cc(N2CCN(C(=O)c3ccoc3)CC2)n2nc(-c3ccccc3)cc2n1` [Compound 49], the “∼Fold G2 Selective” value in data set [3] stood at 0.5 fold.

On to `O=C(c1ccoc1)N1CCN(c2cc(-c3ccco3)nc3cc(-c4ccco4)nn23)CC1` [Compound 52], for which, in data set [1], the “ABCB1 TD50” value is 1.93 µM. In addition, the “ABCG2 TD50” value in data set [2] is more than 100 µM.

Regarding `O=C(c1ccoc1)N1CCN(c2cc(-c3ccco3)nc3cc(-c4cccc(Cl)c4)nn23)CC1` [Compound 53], in data set [1], the “ABCB1 TD50” value came out at 8.53 µM. Also, the “ABCG2 TD50” value in data set [2] came to 10.80 µM.

For `COc1cccc(-c2cc3nc(-c4ccco4)cc(N4CCN(C(=O)c5ccoc5)CC4)n3n2)c1` [Compound 56], the “ABCB1 TD50” value in data set [1] turned out to be 5.52 µM. Further, the “ABCG2 TD50” value in data set [2] is more than 100 µM.

In the case of `COc1ccc(-c2cc3nc(-c4ccco4)cc(N4CCN(C(=O)c5ccoc5)CC4)n3n2)cc1` [Compound 57], the “ABCB1 TD50” value in data set [1] was more than 100 µM. The “ABCG2 TD50” value in data set [2] was more than 100 µM.

On to `O=C(c1ccoc1)N1CCN(c2cc(-c3ccoc3)nc3cc(-c4ccccc4)nn23)CC1` [Compound 61], for which, in data set [1], the “ABCB1 TD50” value turned out to be 7.33 µM. Besides, in data set [2], the “ABCG2 TD50” value came out at 18.30 µM.

As for `CC(=O)N1CCN(c2cc(-c3ccco3)nc3cc(-c4ccccc4)nn23)CC1` [Compound 74], the “ABCB1 TD50” value in data set [1] came out at 10.10 µM. The “ABCG2 TD50” value in data set [2] was more than 100 µM.

Take `CC(=O)N1CCN(c2cc(-c3ccco3)nc3cc(-c4cccc(Cl)c4)nn23)CC1` [Compound 87]: the “ABCB1 TD50” value in data set [1] was 17.60 µM. Also, the “ABCG2 TD50” value in data set [2] is more than 100 µM.

As for `COc1cccc(-c2cc3nc(-c4ccco4)cc(N4CCN(C(C)=O)CC4)n3n2)c1` [Compound 88], in data set [1], the “ABCB1 TD50” value worked out at 49.30 µM. For the same compound, in data set [2], the “ABCG2 TD50” value was more than 100 µM.

In the case of XR9051 [Compound 2, reference compound], the “ABCB1 TD50” value in data set [1] worked out at 1.97 µM. Also, the “ABCG2 TD50” value in data set [2] turned out to be 21.40 µM.
